Data published in patent publication US7264948B2, “Polypeptides for increasing mutant CFTR channel activity” (University of Pittsburgh, priority 2002, dated 2007).
Ends that are not written are not given here.

What was measured:
mouse lungs = test: Intra-tracheal delivery of PTD5 streptavidin-Cy3 complexes into mouse lungs, two-photon microscopy; format: in vivo; conditions: 50 μl of 200 μM, three hours post-injection, FIG. 3
Procedure: To determine if the PTDs can facilitate protein uptake by mouse lungs, the PTD5 streptavidin-Cy3 complexes were delivered into mouse lungs intra-tracheally. The treated mice were sacrificed three hours post-delivery and tissue from the lungs was scanned by two-photon microscopy. 50 μl of 200 μM solution of the PTD-5-β-Cy3 was injected intra-tracheally into mouse lungs. Three hours post-injection, the mice were sacrificed, and the lungs were analyzed by two photon confocal microscopy for internalization. A control peptide (Con.P)-Cy3 was used as a control.

human airway cells = test: Organelle distribution of PTD-5-avidin-β-gal, gradient ultracentrifugation and β-gal activity; format: cell-based; conditions: 37° C., purified organelles, FIG. 5
Procedure: To test the distribution of PTD5 facilitating uptake into human airway cells, the ability of PTD5 to deliver β-gal protein to a variety of cell organelles was examined by separation of organelles using gradient ultra-centrifugation. PTD-5-avidin-β-gal and a control peptide, (Con.P)-avidin-β-gal, were added to the media bathing the airway cell cultures and incubated at 37° C. Three hours post-addition of the complexes, the cells were washed extensively and collected for organelle isolation by gradient ultracentrifugation. The purified cell organelles were tested for β-gal activity using a Galacto-light kit (Tropix, Inc.).

ΔF508 CFTR = test: Whole cell patch clamp of forskolin-stimulated currents; conditions: primary human airway (HBE) cells, four hours treatment, 5-10 μM forskolin, 37° C.
Procedure: To increase the specificity of the method, a whole cell patch clamp method can be utilized to verify the SPQ data using PTD-5 ΔF508 NBD1/RD. Briefly, cells at 50% confluence are treated with PTD fusion peptide or adenovirus carrying ΔF508 NBD1/RD for four hours and subjected to whole cell patch clamp by standard methods. Currents are recorded at −60 mV and current-voltage relations are obtained before and after the cells are stimulated with 5-10 μM forskolin; all procedures are performed at 37° C. The bath solution contained (in mM) 150 NaCl, 2 MgCl2, 1 EGTA, 5 HEPES and 0.5 CaCl2 (pH=7.3). The pipette solution contains (in mM) 150 NaCl, 2 MgCl2, 5 HEPES and 2 CaCl2 (pH=7.3). Data is amplified using an Axopatch 200A patch-clamp amplifier and recorded to disk by a Digidata A/D interface for later analysis with pCLAMP8. The data is low-pass filtered and digitized at 1 kHz.

[1] = molecular target: T1, interaction of Hdj2 and ΔF508 CFTR (Homo sapiens, UniProt P31689); test: Co-immunoprecipitation of Hdj2 with CFTR in KK cell lysate treated with fusion protein; format: binding
T1 construct: endogenous in cells; host or cells: KK bronchial epithelial cell line (lysate)
Procedure: To test whether PTD-5 ΔF508NBD1-RD could inhibit interaction of Hdj2 and ΔF508 CFTR, KK cells, a bronchial epithelial cell line carrying the ΔF508 mutation, were lysed with a lysis buffer, the lysate was treated with PTD5-NBD1-ΔF-RD and equal amount lysates were used to perform immunoprecipitation (IP) using CFTR antibodies, M3A7 (1 μg) and L12B4 (1 μg) and protein […] beads. The precipitants were washed five times with lysis buffer. Hjd2 that co-precipitated with CFTR was fractionated by SDS-PAGE, transferred to PVDF membrane and detected by immunoblotting (IB).

[2] = test system: primary human airway epithelial cells (HBE144), polarized canine kidney cells (MDCK) and other cell types; test: PTD-5-facilitated delivery of avidin-β-gal complex, X-gal staining; format: cell-based; conditions: 150 nM PTD-5-avidin-β-gal complex, three hours, FIG. 1
Procedure: (§1) To determine whether the PTD5 polypeptide (RRQRRTSKLMKR) was able to facilitate uptake into different cell types including differentiated airway epithelial cells and Calu3 cells, the ability of PTD5 to deliver avidin-β-Gal and streptavidin Cy3 to human airway cells and Calu3 cells was examined.
PTD-5 is a positively charged transduction peptide, which was biotinylated so that it can be coupled to avidin marker complexes. 150 nM of the PTD-5-avidin-β-gal complex was added to the cell culture media of various cell lines (FIG. 1). Three hours post addition of the complex, the indicated cells were fixed and stained with X-gal.

[3] = test system: Calu3 cells and human bronchial epithelial cells (KK); test: PTD-5-facilitated delivery of streptavidin-Cy3, confocal microscopy; format: cell-based; conditions: three hours, 37° C., FIG. 2
Procedure: as §1
PTD-5 was also coupled to streptavidin-Cy 3, which was added to Calu3 cell and human bronchial epthelial cells (KK) cultures at 37° C. (FIG. 2). A peptide (Con.P)-strepavdin-Cy3 was used as a control. Three hours post addition of the PTD-5-streptavidin-Cy 3, the intracellular localization of the red (Cy 3) fluorescent signals were visualized by confocal microscopy. The nuclei were counterstained using cytox green.

Row | Substance | Cy3 signal in lungs (mouse lungs) | delivery of avidin-β-gal complex to cell organelles (β-gal activity) (human airway cells) | forskolin-stimulated whole cell currents (ΔF508 CFTR) | interaction of Hdj2 with ΔF508 CFTR (co-immunoprecipitation) ([1]; listed as PTD5 ΔF508NBD1-RD fusion protein) | interaction of Hdj2 with ΔF508 CFTR (co-immunoprecipitation) ([1]; listed as PTD-5-ΔF508 NBD1-RD) | delivery of avidin-β-gal complex into cells (X-gal staining) [2] | delivery of streptavidin-Cy3 complex into cells (confocal microscopy) [3]
1 | ARPLEHGSDKAT (control, Con P) [reference compound] | weak signals | did not localize to any of the organelles | – | – | – | – | –
2 | PTD5-ΔF508 NBD1/RD fusion protein: inline fusion of PTD-5 with the ΔF508 CFTR NBD1-RD region, histidine tag, expressed in E. coli, nickel column purified | – | – | forskolin-stimulated currents typical of those associated with CFTR | capable of inhibiting the interaction of Hdj2 with the ΔF508 CFTR protein | disrupts ΔF508 CFTR interaction with chaperone Hdj2 | – | –
3 | RRQRRTSKLMKR (also: biotinylated (position not given here)) [PTD-5, biotinylated for coupling to avidin marker complexes] | significant Cy3 signal | able to deliver the avidin-β-gal complex to ER, Golgi, mitochondria, and nuclei | – | – | – | able to deliver the avidin-β-gal complex | delivered the streptavidin-Cy3 complex
